Data on two compounds can be found in patent publication US20070098648A1, “Treating mouth sores caused by dental braces with blobs of hydrophilic gums” (priority 2002, published 2007).

The subject of one data set is mouth sores. As to the kind of experiment: experimentation with amoxicillin on conventional patches. Type of data set: in vivo. As to conditions: conventional amoxicillin powder for oral suspension, mixed into the patch and dried. An excerpt: Because use of antibiotics, antibacterials, and other pharmaceutical antimicrobials causes adverse side affects, experimentation with these medications has been limited. […] Conventional amoxicillin powder for preparation of oral suspension was used, which includes sugars and other excipients. The sugars act as a binder to the oral patch. The oral suspension is mixed into the patch or blob and dried. Preferably, the amoxicillin powder is mixed into a stronger than normal liquid before being added to the patch or blob.

Data set [1] is described as follows: side effects of glycyrrhetinic acid in the quantities a person could use per day. Type of data set: in vivo, human. Conditions: in the quantities that a person could use per day. An excerpt: For medication to be placed in the patch or blob, any of the above-mentioned antimicrobials, or similar antimicrobials, may be used. […] The preferred quantity of glycyrrhetinic acid in each patch or blob is 5 to 7%.

As to `CC1(C)S[C@@H]2[C@H](NC(=O)[C@H](N)c3ccc(O)cc3)C(=O)N2[C@H]1C(=O)O` [amoxicillin], the “effect of amoxicillin on conventional patches” value in the data set on mouth sores was “works quite well”.
Turning to `CC1(C)[C@@H](O)CC[C@]2(C)[C@H]3C(=O)C=C4[C@@H]5C[C@@](C)(C(=O)O)CC[C@]5(C)CC[C@@]4(C)[C@]3(C)CC[C@@H]12` [glycyrrhetinic acid], the side effects result in data set [1] is listed as “no side affects have been discovered”.
